According to the supplement of paper PMC9663587:

Legend:
THZ-P1-2 = compound: CN(C)C/C=C/C(=O)NC1=CC=C(C=C1)C(=O)NC2=CC=CC(=C2)NC3=NC=NC(=C3)C4=CNC5=CC=CC=C54 [THZ-P1-2]; assay: GR value, 72 h; higher = faster growth (1 = untreated, <0 = killing);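 further: breast cancer and non-malignant breast epithelial lines, nine half-log doses, viable cells counted by Hoechst and LIVE/DEAD dye imaging versus time-zero plates and DMSO controls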
Volasertib/BI6727 = compound: CC[C@@H]1C(=O)N(C)c2cnc(Nc3ccc(C(=O)N[C@H]4CC[C@H](N5CCN(CC6CC6)CC5)CC4)cc3OC)nc2N1C(C)C [Volasertib/BI6727]; assay: as above
Dasatinib = compound: Cc1nc(Nc2ncc(C(=O)Nc3c(C)cccc3Cl)s2)cc(N2CCN(CCO)CC2)n1 [Dasatinib]; assay: as above
AZD6738 = compound: C[C@@H]1COCCN1c1cc(C2([S@](C)(=N)=O)CC2)nc(-c2cc[nH]c3nccc2-3)n1 [AZD6738]; assay: as above
Pictilisib/GDC0941 = compound: CS(=O)(=O)N1CCN(Cc2cc3nc(-c4cccc5[nH]ncc45)nc(N4CCOCC4)c3s2)CC1 [Pictilisib/GDC0941]; assay: increase in dead-cell fraction, 72 h; higher = more death;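 further: breast cancer cell lines in 384-well plates, stained with Hoechst plus LIVE/DEAD far red dye and imaged, cells above an LDR intensity threshold counted dead, Hoechst-negative corpses included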
[1] = compound: CCCCOc1c(C(=O)c2c(F)cc(C)cc2F)c[nH]c2nncc1-2; assay: as above
Luminespib/NVP-AUY922 = compound: CCNC(=O)c1noc(-c2cc(C(C)C)c(O)cc2O)c1-c1ccc(CN2CCOCC2)cc1 [Luminespib/NVP-AUY922]; assay: as above; conditions: 0.0001 µM

Cell Line AU565 has a GR value (THZ-P1-2; 0.01 µM) of 0.964 GR, a GR value (THZ-P1-2; 0.03162 µM) of 1.02 GR and a GR value (THZ-P1-2; 0.1 µM) of 0.979 GR. For the same cell line, the GR value (THZ-P1-2; 0.3162 µM) was 0.842 GR, the GR value (THZ-P1-2; 1 µM) was 0.865 GR and the GR value (THZ-P1-2; 3.162 µM) was 0.881 GR. It also gave a GR value (THZ-P1-2; 10 µM) of -0.648 GR, a GR value (Volasertib/BI6727; 0.0001 µM) of 1.07 GR and a GR value (Volasertib/BI6727; 0.0003162 µM) of 0.998 GR. It also gave a GR value (Volasertib/BI6727; 0.001 µM) of 0.912 GR, a GR value (Volasertib/BI6727; 0.003162 µM) of 0.756 GR and a GR value (Volasertib/BI6727; 0.01 µM) of -0.409 GR. It also gave a GR value (Volasertib/BI6727; 0.03162 µM) of -0.516 GR, a GR value (Volasertib/BI6727; 0.1 µM) of -0.458 GR and a GR value (Volasertib/BI6727; 0.3162 µM) of -0.455 GR. For the same cell line, the GR value (Volasertib/BI6727; 1 µM) was -0.206 GR, the GR value (Dasatinib; 0.001 µM) was 0.873 GR and the GR value (Dasatinib; 0.003162 µM) was 0.908 GR. For the same cell line, the GR value (Dasatinib; 0.01 µM) was 0.966 GR, the GR value (Dasatinib; 0.03162 µM) was 0.961 GR and the GR value (Dasatinib; 0.1 µM) was 0.877 GR. It also gave a GR value (Dasatinib; 0.3162 µM) of 0.963 GR, a GR value (Dasatinib; 1 µM) of 0.875 GR and a GR value (Dasatinib; 3.162 µM) of 0.73 GR. It also gave a GR value (Dasatinib; 10 µM) of 0.274 GR, a GR value (AZD6738; 0.001 µM) of 0.973 GR and a GR value (AZD6738; 0.003162 µM) of 0.919 GR. It also gave a GR value (AZD6738; 0.01 µM) of 1.05 GR, a GR value (AZD6738; 0.03162 µM) of 1.14 GR and a GR value (AZD6738; 0.1 µM) of 1 GR. The GR value (AZD6738; 0.3162 µM) was 0.982 GR, the GR value (AZD6738; 1 µM) was 0.897 GR and the GR value (AZD6738; 3.162 µM) was 1.08 GR. For the same cell line, the GR value (AZD6738; 10 µM) was 0.281 GR, the “increase in dead-cell fraction” value (Pictilisib/GDC0941; 0.001 µM) was 0.0052 and the “increase in dead-cell fraction” value (Pictilisib/GDC0941; 0.003162 µM) was 0.007. The “increase in dead-cell fraction” value (Pictilisib/GDC0941; 0.01 µM) was 0.0001, the “increase in dead-cell fraction” value (Pictilisib/GDC0941; 0.03162 µM) was 0.0063 and the “increase in dead-cell fraction” value (Pictilisib/GDC0941; 0.1 µM) was 0.0196. For the same cell line, the “increase in dead-cell fraction” value (Pictilisib/GDC0941; 0.3162 µM) was 0.0368, the “increase in dead-cell fraction” value (Pictilisib/GDC0941; 1 µM) was 0.0866 and the “increase in dead-cell fraction” value (Pictilisib/GDC0941; 3.162 µM) was 0.126. For the same cell line, the “increase in dead-cell fraction” value (Pictilisib/GDC0941; 10 µM) was 0.19, the “increase in dead-cell fraction” value ([1]; 0.001 µM) was 0.0215 and the “increase in dead-cell fraction” value ([1]; 0.003162 µM) was -0.004. For the same cell line, the “increase in dead-cell fraction” value ([1]; 0.01 µM) was 0.0231, the “increase in dead-cell fraction” value ([1]; 0.03162 µM) was 0.0204 and the “increase in dead-cell fraction” value ([1]; 0.1 µM) was 0.0353. For the same cell line, the “increase in dead-cell fraction” value ([1]; 0.3162 µM) was 0.0286, the “increase in dead-cell fraction” value ([1]; 1 µM) was 0.0615 and the “increase in dead-cell fraction” value ([1]; 3.162 µM) was 0.0772. The “increase in dead-cell fraction” value ([1]; 10 µM) was 0.136 and the “increase in dead-cell fraction” value (Luminespib/NVP-AUY922) was -0.0018.
